Here are results for 29 compounds from patent US8044052B2, “Biaryl ether urea compounds” (Pfizer Inc., priority 2006, dated 2011).

Counter-ions that a name gives are not always drawn.

The target of the first experiment is T1, Human FAAH (Homo sapiens, UniProt O00519).
T1 construct: made in house
T1 sequence (O00519 1-579): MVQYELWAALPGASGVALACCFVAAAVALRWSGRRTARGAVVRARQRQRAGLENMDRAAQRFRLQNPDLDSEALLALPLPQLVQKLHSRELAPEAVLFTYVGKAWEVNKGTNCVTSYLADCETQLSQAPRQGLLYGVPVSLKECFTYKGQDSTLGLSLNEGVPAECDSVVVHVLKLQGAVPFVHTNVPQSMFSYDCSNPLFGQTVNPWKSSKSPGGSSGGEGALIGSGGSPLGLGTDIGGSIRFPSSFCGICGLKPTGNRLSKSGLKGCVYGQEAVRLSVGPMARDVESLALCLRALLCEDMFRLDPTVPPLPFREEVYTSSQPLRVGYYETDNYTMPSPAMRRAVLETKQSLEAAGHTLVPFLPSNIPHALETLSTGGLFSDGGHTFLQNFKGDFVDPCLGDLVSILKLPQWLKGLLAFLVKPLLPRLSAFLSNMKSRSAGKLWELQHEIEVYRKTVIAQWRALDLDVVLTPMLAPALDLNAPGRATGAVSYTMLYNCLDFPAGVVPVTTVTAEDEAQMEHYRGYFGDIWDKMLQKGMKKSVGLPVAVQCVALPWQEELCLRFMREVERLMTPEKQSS
In words: FAAH assay (glutamate dehydrogenase-coupled, oleamide substrate, absorbance at 340 nm). In kind it is biochemical. As to conditions: irreversible inhibition, 1-4 nM FAAH, pH 7.4, 30° C., 90 min. How it is done:
The FAAH assay was carried out in 384-well clear polystyrene plates in a total volume of 50 μl per well. All percents are by volume. To each well, was placed the reaction mixture (40 μl) containing 1-4 nM FAAH, 50 mM NaPi, pH 7.4, 3 mM α-ketoglutarate, 0.15 mM NADH, 7.5 U/ml glutamate dehydrogenase, 2 mM ADP, 1 mM EDTA, and 0.1% Triton X-100 (The concentration shown for each component is the final concentration in the assay). […] This was immediately followed by the addition of 5 μl oleamide (500 μM) dissolved in 75% EtOH/25% DMSO and the reaction mixture was mixed for 1.5 min. The final concentrations of DMSO and EtOH in the assay were each 7.5%.
Initial velocity data (V) were obtained from the slopes of the initial progressive curves. They were plotted as a function of substrate concentration and fit to the Michaelis-Menten equation (1) using Prism (GraphPad Software, Inc., San Diego, Calif.) software to obtain Km and Vmax values.
To obtain potencies of irreversible inhibitors, progressive curves consistent with first order inhibition kinetics (two-step irreversible inhibition mechanism) were fit to equation (2) by nonlinear least squares regressions to determine kobs values at each inhibitor concentration, where [P]t is the absorbance at time t, V0 is a constant related to the steady state rate of the uninhibited reaction, and kobs is the first order rate constant for enzyme inactivation. The inhibitor dissociation constant (Ki) and the first order rate
[formula] constant of enzyme inactivation at infinite inhibitor concentration (kinact) were then obtained by fitting the kobs vs. [I] curves to equation (3).
With `O=C(Nc1cccnc1)N1CCC(=Cc2cccc(Oc3ccc(C(F)(F)F)cc3)c2)CC1` [Example 53], the “hFAAH kinact/Ki” value is 4520 M⁻¹ s⁻¹.

For “N-(pyridin-3-yl)-4-(3-[{phenyl-2-yl]oxy}benzylidene)piperidine-1-carboxamide [Example 31]”, the “hFAAH kinact/Ki” value amounted to 931 M⁻¹ s⁻¹.

Turning to “4-(3-(5-methylpyridin-2-yloxy)benzylidene)-N-pyridin-3-yl)piperidine-1-carboxamide [Example 44]”, the “hFAAH kinact/Ki” value worked out at 9480 M⁻¹ s⁻¹.

Staying with this experiment, now noted: irreversible inhibition, 1-4 nM FAAH, pH 7.4, 30° C., 90 min, read-out: hFAAH kinact/Ki.
In the case of `O=C(Nc1cccnn1)N1CCC(=Cc2cccc(Oc3ncc4ccccc4n3)c2)CC1` [Example 105, N-pyridazin-3-yl-4-[3-(quinazolin-2-yloxy)benzylidene]piperidine-1-carboxamide], the kinact/KI came out at 2530 M⁻¹ s⁻¹.

With `O=C(Nc1cc(CO)ccn1)N1CCC(=Cc2cccc(Oc3ccc(C(F)(F)F)cn3)c2)CC1` [Example 83, N-[4-(hydroxymethyl)pyridin-2-yl]-4-(3-{[5-(trifluoromethyl)pyridin-2-yl]oxy}benzylidene)piperidine-1-carboxamide trifluoroacetate], the kinact/KI worked out at 356 M⁻¹ s⁻¹.

As for `O=C(Nc1ncccc1O)N1CCC(=Cc2cccc(Oc3ccc(C(F)(F)F)cn3)c2)CC1` [Example 79, N-(3-hydroxypyridin-2-yl)-4-(3-{[5-(trifluoromethyl)pyridin-2-yl]oxy}benzylidene)piperidine-1-carboxamide trifluoroacetate], the kinact/KI amounted to 4880 M⁻¹ s⁻¹.

For `Cn1ncc(NC(=O)N2CCC(=Cc3cccc(Oc4ccc(C(F)(F)F)cn4)c3)CC2)n1` [Example 78, N-(2-methyl-2H-1,2,3-triazol-4-yl)-4-(3-{[5-(trifluoromethyl)pyridin-2-yl]oxy}benzylidene)piperidine-1-carboxamide], the kinact/KI came to 2100 M⁻¹ s⁻¹.

As to `Cc1ccnc(Oc2cccc(C=C3CCN(C(=O)Nc4cccnn4)CC3)c2)c1` [Example 73, 4-{3-[(4-methylpyridin-2-yl)oxy]benzylidene}-N-pyridazin-3-ylpiperidine-1-carboxamide], the kinact/KI amounted to 963 M⁻¹ s⁻¹.

With `O=C(Nc1cccnn1)N1CCC(=Cc2cccc(Oc3nc4ccccc4s3)c2)CC1` [Example 124, 4-[3-(1,3-benzothiazol-2-yloxy)benzylidene]-N-pyridazin-3-ylpiperidine-1-carboxamide], the kinact/KI turned out to be 7400 M⁻¹ s⁻¹.

Take `Cc1cc(C=C2CCN(C(=O)Nc3cccnc3)CC2)cc(Oc2ccc(C(F)(F)F)cn2)c1` [Example 61, 4-(3-methyl-5-(5-(trifluoromethyl)pyridin-2-yloxy)benzylidene)-N-(pyridin-3-yl)piperidine-1-carboxamide]: the kinact/KI came to 2130 M⁻¹ s⁻¹.

Turning to `CCn1ncnc1NC(=O)N1CCC(=Cc2cccc(Oc3ccc(C(F)(F)F)cn3)c2)CC1` [Example 81, N-(1-ethyl-1H-1,2,4-triazol-5-yl)-4-(3-{[5-(trifluoromethyl)pyridin-2-yl]oxy}benzylidene)piperidine-1-carboxamide trifluoroacetate], the kinact/KI amounted to 1010 M⁻¹ s⁻¹.

Turning to `Cc1cnc(Oc2cccc(C=C3CCN(C(=O)Nc4cccnn4)CC3)c2)nc1` [Example 109, 4-{3-[(5-methylpyrimidin-2-yl)oxy]benzylidene}-N-pyridazin-3-ylpiperidine-1-carboxamide], the kinact/KI came to 1240 M⁻¹ s⁻¹.

`C#CCCCOc1ccc(Oc2cccc(C=C3CCN(C(=O)Nc4cccnc4)CC3)c2)nc1` [Example 89, 4-(3-(5-(pent-4-ynyloxy)pyridin-2-yloxy)benzylidene)-N-(pyridin-3-yl)piperidine-1-carboxamide]: the kinact/KI was 6450 M⁻¹ s⁻¹.

Regarding `O=C(Nc1cccc(CO)c1)N1CCC(=Cc2cccc(Oc3ccc(C(F)(F)F)cn3)c2)CC1` [Example 82, N-[3-(hydroxymethyl)phenyl]-4-(3-{[5-(trifluoromethyl)pyridin-2-yl]oxy}benzylidene)piperidine-1-carboxamide], the kinact/KI was 979 M⁻¹ s⁻¹.

As for `Cc1nccnc1Oc1cccc(C=C2CCN(C(=O)Nc3cccnn3)CC2)c1` [Example 118, 4-{3-[(3-methylpyrazin-2-yl)oxy]benzylidene}-N-pyridazin-3-ylpiperidine-1-carboxamide], the kinact/KI was 191 M⁻¹ s⁻¹.

For `O=C(Nc1cccnn1)N1CCC(=Cc2cccc(Oc3ncc(-c4cccc(Cl)c4)cn3)c2)CC1` [Example 110, 4-(3-{[5-(3-chlorophenyl)pyrimidin-2-yl]oxy}benzylidene)-N-pyridazin-3-ylpiperidine-1-carboxamide], the kinact/KI was found to be 1020 M⁻¹ s⁻¹.

`O=C(Nc1cccnc1)N1CCC(=Cc2cccc(Oc3ccccc3)n2)CC1` [Example 92, 4-((6-phenoxypyridin-2-yl)methylene)-N-(pyridin-3-yl)piperidine-1-carboxamide]: the kinact/KI worked out at 894 M⁻¹ s⁻¹.

Consider `O=C(Nc1ncc(Br)cc1CO)N1CCC(=Cc2cccc(Oc3ccc(C(F)(F)F)cn3)c2)CC1` [Example 132, N-[5-bromo-3-(hydroxymethyl)pyridin-2-yl]-4-(3-{[5-(trifluoromethyl)pyridin-2-yl]oxy}benzylidene)piperidine-1-carboxamide], for which the kinact/KI amounted to 105 M⁻¹ s⁻¹.

As to `O=C(Nc1cc(O)[nH]n1)N1CCC(=Cc2cccc(Oc3ccc(C(F)(F)F)cn3)c2)CC1` [Example 143, N-(5-hydroxy-1H-pyrazol-3-yl)-4-(3-{[5-(trifluoromethyl)pyridin-2-yl]oxy}benzylidene)piperidine-1-carboxamide], the kinact/KI worked out at 412 M⁻¹ s⁻¹.

`Cc1noc(NC(=O)N2CCC(=Cc3cccc(Oc4ccc(Br)cn4)c3)CC2)c1C` [Example 35, 4-(3-(5-bromopyridin-2-yloxy)benzylidene)-N-(3,4-dimethylisoxazol-5-yl)piperidine-1-carboxamide]: the kinact/KI is 3670 M⁻¹ s⁻¹.

Take `O=C(Nc1ccc(O)nc1)N1CCC(=Cc2cccc(Oc3ccc(C(F)(F)F)cn3)c2)CC1` [Example 142, N-(6-hydroxypyridin-3-yl)-4-(3-{[5-(trifluoromethyl)pyridin-2-yl]oxy}benzylidene)piperidine-1-carboxamide]: the kinact/KI is 246 M⁻¹ s⁻¹.

As for `O=C(Nc1cccnc1)N1CCC(=Cc2cccc(Oc3ccc(C(F)(F)F)cn3)c2)CC1` [Example 1, N-pyridin-3-yl-4-(3-{[5-(trifluoromethyl)pyridin-2-yl]oxy}benzylidene)piperidine-1-carboxamide], the kinact/KI came out at 13300 M⁻¹ s⁻¹.

For the compound `O=C(Nc1cncc(Cl)n1)N1CCC(=Cc2cccc(Oc3ccc(C(F)(F)F)cn3)c2)CC1` [Example 27, N-(6-chloropyrazin-2-yl)-4-(3-{[5-(trifluoromethyl)pyridin-2-yl]oxy}benzylidene)piperidine-1-carboxamide], the kinact/KI was determined as 3900 M⁻¹ s⁻¹.

Regarding `CCOc1ccc(Oc2cccc(C=C3CCN(C(=O)Nc4cccnn4)CC3)c2)nc1` [Example 48, 4-(3-(5-ethoxypyridin-2-yloxy)benzylidene)-N-(pyridazin-3-yl)piperidine-1-carboxamide], the kinact/KI was 5830 M⁻¹ s⁻¹.

On to `N#Cc1ccc(Oc2cccc(C=C3CCN(C(=O)Nc4cccnc4)CC3)c2)nc1` [Example 30, 4-(3-(5-cyanopyridin-2-yloxy)benzylidene)-N-(pyridin-3-yl)piperidine-1-carboxamide], for which the kinact/KI came to 3540 M⁻¹ s⁻¹.

Regarding `O=C(Nc1cccnc1)N1CCC(=Cc2cc(F)cc(Oc3ccc(C(F)(F)F)cn3)c2)CC1` [Example 65, 4-(3-fluoro-5-(5-(trifluoromethyl)pyridin-2-yloxy)benzylidene)-N-(pyridin-3-yl)piperidine-1-carboxamide], the kinact/KI was 6710 M⁻¹ s⁻¹.

For the compound `Cc1nn(C)c(C)c1NC(=O)N1CCC(=Cc2cccc(Oc3ccc(C(F)(F)F)cn3)c2)CC1` [Example 134, 4-(3-{[5-(trifluoromethyl)pyridin-2-yl]oxy}benzylidene)-N-(1,3,5-trimethyl-1H-pyrazol-4-yl)piperidine-1-carboxamide], the kinact/KI is below 10 M⁻¹ s⁻¹.

`O=C(Nc1cccnn1)N1CCC(=Cc2cccc(Oc3cnccn3)c2)CC1` [Example 123, 4-[3-(pyrazin-2-yloxy)benzylidene]-N-pyridazin-3-ylpiperidine-1-carboxamide]: the kinact/KI turned out to be 203 M⁻¹ s⁻¹.

With `CC(=C1CCN(C(=O)Nc2cccnc2)CC1)c1cccc(Oc2ccc(C(F)(F)F)cn2)c1` [Example 67, N-(pyridin-3-yl)-4-(1-(3-(5-(trifluoromethyl)pyridin-2-yloxy)phenyl)ethylidene)piperidine-1-carboxamide], the kinact/KI is 5980 M⁻¹ s⁻¹.
